Series [1] is described as follows: Decomposition rate studies (half-life of azo and peroxide portions). Format: physicochemical. As to the method: The temperatures at which the polymerizations are carried out will depend upon the polymerization technique; the monomer, solvent or suspending medium; and the physical properties desired in the polymer; but most of all upon the azo-peroxide initiator and the method chosen to decompose the azo or peroxide portion of the initiator. Activation of the peroxide portion by amines, reducing agents, transition metal carboxylates, etc., can be carried out from below -20° C up to its normal decomposition temperature. The same is true for activation of the peroxide or azo portions by irradiation. Irradiation sources can be ultra-violet radiation, and in the presence of photosensitizers (e.g. certain azo dyes) visible light can also be used. The temperatures used for the thermal decompositions of the azo or peroxide portions will depend upon the thermal stability (half-life) of the azo or peroxide grouping in the molecule. These half-lives can be determined quantitatively for each azo-peroxide compound by conventional methods i.e. gas evolution, and iodometric, ultra-violet, or gas chromatographic analytical techniques to determine the rate of disappearance of each portion (azo or peroxide) at any given temperature. (Such half-life data were determined for the compounds made in Examples 1 to 5.) […]
Its infrared spectrum was in agreement with the above structure showing both peresters and acid chloride carbonyl absorption bands. […] Apparently, the perester undergoes induced decomposition at this relatively high temperature.

The nature of a further series: Storage stability. Format: physicochemical.

Each structure is given as a SMILES string.

As for `CC1(C#N)CCC(=O)OOC(=O)CCC(C)(C#N)N=N1` (stereo not shown) [Example 1, 6,9-Dimethyl-6,9-dicyano-Δ^7,1,2-dioxa-7,8-diazacyclododecan-3,12-dione], in series [1] (70° C, o-dichlorobenzene), the “t1/2 of azo portion” value is on record as “≈ 236 minutes” and the “t1/2 of diacyl peroxide portion” value is given as “≈ 99 minutes”. Also, in “Storage stability”, the storage stability entry is recorded as “more than one month”.

Turning to `CC(C#N)(CCC(=O)OOC(C)(C)C)N=NC(C)(C#N)CCC(=O)OOC(C)(C)C` (stereo not drawn) [Example 4, Di-t-butylperoxy Ester of cis-4,4'-Azobis(4-cyanovalericacid)], in series [1] (80° C, trichlorobenzene), the “t1/2 of azo portion” value is recorded as “≈ 92 minutes” and the “t1/2 of perester portion” value is “≈ 319 minutes”. Also, the “change of infrared spectrum on standing (room temperature stability)” value in the series “Storage stability” (two days at 21° C) was “not changed”.

Consider `CC(C#N)(CCC(=O)Cl)N=NC(C)(C#N)CCC(=O)OOC(C)(C)C` (stereo not drawn) [Example 5, mono-t-Butylperoxy Ester of the Diacid Chloride of trans-4,4'-Azobis(4-cyanovaleric acid)], for which, in series [1] (90° C, dioctyl phthalate), the “decomposition order of azo and perester linkages” value is given as “decompose simultaneously”.

The record behind these values is patent US4088642A (priority 1973, dated 1978).
